Values after ≈ are worked out from the molar mass of the structure shown. Structures can show the parent of a compound that is named as a salt.
Columns and labels:
HeLa.S3 cell [1] = assay: Enhancement of cytocidal effect: colony formation of HeLa S3 cells, known carcinostatic drug added simultaneously with the compound of the present invention, 7 days; assay type: cell-based, human; conditions: for enhancement of the cytocidal effect of a carcinostatic drug: conclusion in words from the figures of Table 2 (CPM by the S9 mix protocol)
Description: Effect of the simultaneous use of a known carcinostatic agent and the compound (I) (Enhancement of cytocidal effect) • (1) Experimental material and procedure • ① Cell: Epithelical cell from human uterocervical cancer, HeLa.S3 cell • ② Cultivation: The cell was cultivated using a culture fluid obtained by adding 10 parts of fetal calf serum to 90 parts of Eagles Minimum Essential Medium in an incuvator having a carbon dioxide concentration controlled to 5% at 37°C. • ③ Drug: The compound of the present invention was added as a solution in dimethyl sulfoxide(DMSO) of a final DMSO concentration of 0.1% to the culture fluid. The clinical injections as shown in Table 1 were added to the culture fluid as a known carcinostatic drug. […] After the cultivation for 7 days, the cells were fixed with methanol and subjected to Giemsa's staining, followed by calculation of the number of colonies containing at least 20 cells under a stereomicroscope. The concentration (ng/mℓ) of the carcinostatic drug required to decrease the ratio of the number of colonies of a treated group to that of an untreated group (control) to 50% were determined and are shown as "IC50".

[2] = Toxicological test, oral administration for 14 days; assay type: in vivo; conditions: female ICR mice, orally, 14 days, 40, 200 or 400 mg/kg/day
Description: The compound of the present invention, 3,7,11,15-tetramethyl-2,4,6,10,14-hexadecapentaenoic acid, was administered orally to each group consisting of six female ICR mice for 14 days at a dosage of 40, 200 or 400 mg/kg/day, respectively, to observe changes in the weight, the mortality or the like.

HeLa.S3 cell [3] = assay: cells; conditions: Homo sapiens
Description: The clinical injections as shown in Table 1 were added to the culture fluid as a known carcinostatic drug. [formula] • ④ Experimental procedure: 150 epithelical cells from human uterocervical cancer (HeLaS3 cell) were planted in each plastic dish of a diameter of 60 mm. […] After the cultivation for 7 days, the cells were fixed with methanol and subjected to Giemsa's staining, followed by calculation of the number of colonies containing at least 20 cells under a stereomicroscope. The concentration (ng/mℓ) of the carcinostatic drug required to decrease the ratio of the number of colonies of a treated group to that of an untreated group (control) to 50% were determined and are shown as "IC50".

[4] = Homo sapiens, HeLa S3, compound of the present invention 0 M; listed as 1): based on case where both compound and drug are 0, read-out: IC50 (ng/ml) 0 a)
[5] = Homo sapiens, HeLa S3, compound of the present invention 0 M; listed as 2): based on case where drug is 0 at the same compound concentration, read-out: IC50 (ng/ml) 0 a)
[6] = Homo sapiens, HeLa S3, compound of the present invention 3.2×10^-5 M; listed as 1): based on case where both compound and drug are 0, read-out: IC50 (ng/ml) 3.2×10^-5 d)
[7] = Homo sapiens, HeLa S3, compound of the present invention 3.2×10^-5 M; listed as 2): based on case where compound is 3.2×10^-5 M and drug is 0, read-out: IC50 (ng/ml) 3.2×10^-5 d)
[8] = Homo sapiens, HeLa S3, compound of the present invention 10^-5 M; listed as 1): based on case where both compound and drug are 0, read-out: IC50 (ng/ml) 10^-5 c)
[9] = Homo sapiens, HeLa S3, compound of the present invention 10^-5 M; listed as 2): based on case where compound is 10^-5 M and drug is 0, read-out: IC50 (ng/ml) 10^-5 c)
[10] = Homo sapiens, HeLa S3, compound of the present invention 10^-6 M; listed as 1): based on case where both compound and drug are 0, read-out: IC50 (ng/ml) 10^-6 b)
[11] = Homo sapiens, HeLa S3, compound of the present invention 10^-6 M; listed as 2): based on case where compound is 10^-6 M and drug is 0, read-out: IC50 (ng/ml) 10^-6 b)

S=P(N1CC1)(N1CC1)N1CC1 [Thio-TEPA, Thio TEPA]
IC50 (HeLa.S3 cell [1]; Homo sapiens, HeLa S3, read-out: IC50 (ng/ml) 0 a), compound of the present invention 0 M; 1): based on case where both compound and drug are 0): 311 ng/mL
IC50 (HeLa.S3 cell [1]; Homo sapiens, HeLa S3, read-out: IC50 (ng/ml) 0 a), compound of the present invention 0 M; listed as 2): based on case where drug is 0 at the same compound concentration): 311 ng/mL
IC50 (HeLa.S3 cell [1]; Homo sapiens, HeLa S3, read-out: IC50 (ng/ml) 3.2×10^-5 d), compound of the present invention 3.2×10^-5 M; 2): based on case where compound is 3.2×10^-5 M and drug is 0): 244 ng/mL
IC50 (HeLa.S3 cell [1]; Homo sapiens, HeLa S3, read-out: IC50 (ng/ml) 3.2×10^-5 d), compound of the present invention 3.2×10^-5 M; listed as 1): based on case where both compound and drug are 0): 274 ng/mL
IC50 (HeLa.S3 cell [1]; Homo sapiens, HeLa S3, read-out: IC50 (ng/ml) 10^-5 c), compound of the present invention 10^-5 M; listed as 1): based on case where both compound and drug are 0): 299 ng/mL
IC50 (HeLa.S3 cell [1]; Homo sapiens, HeLa S3, read-out: IC50 (ng/ml) 10^-5 c), compound of the present invention 10^-5 M; listed as 2): based on case where compound is 10^-5 M and drug is 0): 319 ng/mL
IC50 (HeLa.S3 cell [1]; Homo sapiens, HeLa S3, read-out: IC50 (ng/ml) 10^-6 b), compound of the present invention 10^-6 M; 2): based on case where compound is 10^-6 M and drug is 0): 291 ng/mL
IC50 (HeLa.S3 cell [1]; Homo sapiens, HeLa S3, read-out: IC50 (ng/ml) 10^-6 b), compound of the present invention 10^-6 M; listed as 1): based on case where both compound and drug are 0): 274 ng/mL

CC[C@]1(O)C[C@H]2CN(CCc3c([nH]c4ccccc34)[C@@](C(=O)OC)(c3cc4c(cc3OC)N(C=O)[C@H]3[C@@](O)(C(=O)OC)[C@H](OC(C)=O)[C@]5(CC)C=CCN6CC[C@]43[C@@H]65)C2)C1 [VCR, vincristine sulfate]
IC50 (HeLa.S3 cell [1]; [4]): 5.5 ng/mL
IC50 (HeLa.S3 cell [1]; [5]): 5.5 ng/mL
IC50 (HeLa.S3 cell [1]; [6]): 2.63 ng/mL
IC50 (HeLa.S3 cell [1]; [7]): 5.65 ng/mL
IC50 (HeLa.S3 cell [1]; [8]): 6.38 ng/mL
IC50 (HeLa.S3 cell [1]; [9]): 7.7 ng/mL
IC50 (HeLa.S3 cell [1]; [10]): 7.44 ng/mL
IC50 (HeLa.S3 cell [1]; [11]): 7.45 ng/mL

Nc1ccn([C@@H]2O[C@H](CO)[C@@H](O)[C@@H]2O)c(=O)n1 [Ara-C, cytarabine]
IC50 (HeLa.S3 cell [1]; [4]): 10.9 ng/mL
IC50 (HeLa.S3 cell [1]; [5]): 10.9 ng/mL
IC50 (HeLa.S3 cell [1]; [6]): 6.25 ng/mL
IC50 (HeLa.S3 cell [1]; [7]): 11.6 ng/mL
IC50 (HeLa.S3 cell [1]; [8]): 11.4 ng/mL
IC50 (HeLa.S3 cell [1]; [9]): 12.4 ng/mL
IC50 (HeLa.S3 cell [1]; [10]): 11.9 ng/mL
IC50 (HeLa.S3 cell [1]; [11]): 12 ng/mL

COC(COC(N)=O)C1=C(N2CC2)C(=O)C(C)=C(N2CC2)C1=O (centres unmarked) [CQ, carboquone]
IC50 (HeLa.S3 cell [1]; [4]): 0.339 ng/mL
IC50 (HeLa.S3 cell [1]; [5]): 0.339 ng/mL
IC50 (HeLa.S3 cell [1]; [6]): 0.076 ng/mL
IC50 (HeLa.S3 cell [1]; [7]): 0.131 ng/mL
IC50 (HeLa.S3 cell [1]; [8]): 0.242 ng/mL
IC50 (HeLa.S3 cell [1]; [9]): 0.275 ng/mL
IC50 (HeLa.S3 cell [1]; [10]): 0.273 ng/mL
IC50 (HeLa.S3 cell [1]; [11]): 0.253 ng/mL
enhancement of the cytocidal effect of a carcinostatic drug (HeLa.S3 cell [1]): particularly remarkable

CC(C)=CCCC(C)=CCCC(C)=CC=CC(C)=CC(=O)O [compound of the present invention, 3,7,11,15-tetramethyl-2,4,6,10,14-hexadecapentaenoic acid]
enhancement of the cytocidal effect of a carcinostatic drug (HeLa.S3 cell [1]): synergisticly enhances the cytocidal effect of a carcinostatic drug
mortality [2]: No mice died

CO[C@@]12[C@H](COC(N)=O)C3=C(C(=O)C(C)=C(N)C3=O)N1C[C@@H]1N[C@@H]12 [MMC, mitomycin]
IC50 (HeLa.S3 cell [1]; [4]): 1.5 ng/mL
IC50 (HeLa.S3 cell [1]; [5]): 1.5 ng/mL
IC50 (HeLa.S3 cell [1]; [6]): 0.4 ng/mL
IC50 (HeLa.S3 cell [1]; [7]): 0.84 ng/mL
IC50 (HeLa.S3 cell [1]; [8]): 0.74 ng/mL
IC50 (HeLa.S3 cell [1]; [9]): 0.82 ng/mL
IC50 (HeLa.S3 cell [1]; [10]): 1.05 ng/mL
IC50 (HeLa.S3 cell [1]; [11]): 1.06 ng/mL
enhancement of the cytocidal effect of a carcinostatic drug (HeLa.S3 cell [1]): particularly remarkable

Cc1ncc(CNC(=O)N(CCCl)N=O)c(N)n1 [ACNU, minustine hydrochloride]
IC50 (HeLa.S3 cell [1]; [4]): 135 ng/mL
IC50 (HeLa.S3 cell [1]; [5]): 135 ng/mL
IC50 (HeLa.S3 cell [1]; [6]): 102 ng/mL
IC50 (HeLa.S3 cell [1]; [7]): 136 ng/mL
IC50 (HeLa.S3 cell [1]; [8]): 146 ng/mL
IC50 (HeLa.S3 cell [1]; [9]): 150 ng/mL
IC50 (HeLa.S3 cell [1]; [10]): 143 ng/mL
IC50 (HeLa.S3 cell [1]; [11]): 147 ng/mL

O=c1[nH]cc(F)c(=O)[nH]1 [5-FU, fluorouracil]
IC50 (HeLa.S3 cell [1]; [4]): 648 ng/mL
IC50 (HeLa.S3 cell [1]; [5]): 648 ng/mL
IC50 (HeLa.S3 cell [1]; [6]): 267 ng/mL
IC50 (HeLa.S3 cell [1]; [7]): 347 ng/mL
IC50 (HeLa.S3 cell [1]; [8]): 329 ng/mL
IC50 (HeLa.S3 cell [1]; [9]): 369 ng/mL
IC50 (HeLa.S3 cell [1]; [10]): 375 ng/mL
IC50 (HeLa.S3 cell [1]; [11]): 388 ng/mL
enhancement of the cytocidal effect of a carcinostatic drug (HeLa.S3 cell [1]): particularly remarkable

bleomycin hydrochloride [BLM]
enhancement of the cytocidal effect of a carcinostatic drug (HeLa.S3 cell [1]): particularly remarkable

O=P1(N(CCCl)CCCl)NCCCO1 (centres unmarked) [CPM, cyclophosphamide]
enhancement of the cytocidal effect of a carcinostatic drug (HeLa.S3 cell [1]): particularly remarkable
IC50 (HeLa.S3 cell [3]; HeLa S3, read-out: IC50 (ng/ml) 0 a), S9 mix protocol; compound of the present invention 0 M; listed as 1): based on case where both compound and drug are 0): 4210 ng/mL (≈ 16.1 µM)
IC50 (HeLa.S3 cell [3]; HeLa S3, read-out: IC50 (ng/ml) 0 a), S9 mix protocol; compound of the present invention 0 M; listed as 2): based on case where drug is 0 at the same compound concentration): 4210 ng/mL (≈ 16.1 µM)
IC50 (HeLa.S3 cell [3]; HeLa S3, read-out: IC50 (ng/ml) 3.2×10^-5 d), S9 mix protocol; compound of the present invention 3.2×10^-5 M; listed as 1)): 1220 ng/mL (≈ 4.69 µM)
IC50 (HeLa.S3 cell [3]; HeLa S3, read-out: IC50 (ng/ml) 3.2×10^-5 d), S9 mix protocol; compound of the present invention 3.2×10^-5 M; listed as 2)): 2300 ng/mL (≈ 8.82 µM)
IC50 (HeLa.S3 cell [3]; HeLa S3, read-out: IC50 (ng/ml) 10^-5 c), S9 mix protocol; compound of the present invention 10^-5 M; listed as 1)): 1330 ng/mL (≈ 5.08 µM)
IC50 (HeLa.S3 cell [3]; HeLa S3, read-out: IC50 (ng/ml) 10^-5 c), S9 mix protocol; compound of the present invention 10^-5 M; listed as 2)): 1970 ng/mL (≈ 7.56 µM)
IC50 (HeLa.S3 cell [3]; HeLa S3, read-out: IC50 (ng/ml) 10^-6 b), S9 mix protocol; compound of the present invention 10^-6 M; listed as 1)): 3360 ng/mL (≈ 12.9 µM)
IC50 (HeLa.S3 cell [3]; HeLa S3, read-out: IC50 (ng/ml) 10^-6 b), S9 mix protocol; compound of the present invention 10^-6 M; listed as 2)): 3160 ng/mL (≈ 12.1 µM)

Cc1c(N)nc([C@H](CC(N)=O)NC[C@H](N)C(N)=O)nc1C(=O)N[C@H](C(=O)N[C@H](C)[C@@H](O)[C@H](C)C(=O)N[C@H](C(=O)NCCc1nc(-c2nc(C(=O)NCCCN[C@@H](C)c3ccccc3)cs2)cs1)[C@@H](C)O)[C@@H](O[C@@H]1O[C@@H](CO)[C@@H](O)[C@H](O)[C@@H]1O[C@H]1O[C@H](CO)[C@@H](O)[C@H](OC(N)=O)[C@@H]1O)c1c[nH]cn1.O=S(=O)(O)O [PEP, pepleomycin sulfate]
enhancement of the cytocidal effect of a carcinostatic drug (HeLa.S3 cell [1]): particularly remarkable

COc1cccc2c1C(=O)c1c(O)c3c(c(O)c1C2=O)C[C@@](O)(C(=O)CO)C[C@@H]3O[C@H]1C[C@H](N)[C@H](O)[C@H](C)O1 [ADM, doxorubicin hydrochloride]
IC50 (HeLa.S3 cell [1]; [4]): 3.79 ng/mL
IC50 (HeLa.S3 cell [1]; [5]): 3.79 ng/mL
IC50 (HeLa.S3 cell [1]; [6]): 1.88 ng/mL
IC50 (HeLa.S3 cell [1]; [7]): 3.14 ng/mL
IC50 (HeLa.S3 cell [1]; [8]): 2.43 ng/mL
IC50 (HeLa.S3 cell [1]; [9]): 4.15 ng/mL
IC50 (HeLa.S3 cell [1]; [10]): 3.1 ng/mL
IC50 (HeLa.S3 cell [1]; [11]): 3.51 ng/mL

Reference: patent publication EP0175171A2, “Use of 3,7,11,15-tetramethyl-2,4,6,10,14-hexadecapentaenoic acid for enhancing the effect of anti-tumour agents” (Eisai Co., Ltd., priority 1984, dated 1986)
